Measured values from US10183943B2, “Heterocyclic compounds and their use in preventing or treating bacterial infections” (MUTABILIS, priority 2015, dated 2019).

Experiments:
[1] = molecular target: T1, TEM-1 (Escherichia coli, UniProt P62593); assay: β-lactamase inhibitory activity, determination of IC50 (nitrocefin hydrolysis); type: biochemical
T1 construct: made in house; host or cells: E. coli

[2] = molecular target: T2, SHV-1 (Klebsiella pneumoniae, UniProt P0AD64); assay: as above; type: biochemical
T2 construct: made in house; host or cells: E. coli
T2 sequence (P0AD64 22-286): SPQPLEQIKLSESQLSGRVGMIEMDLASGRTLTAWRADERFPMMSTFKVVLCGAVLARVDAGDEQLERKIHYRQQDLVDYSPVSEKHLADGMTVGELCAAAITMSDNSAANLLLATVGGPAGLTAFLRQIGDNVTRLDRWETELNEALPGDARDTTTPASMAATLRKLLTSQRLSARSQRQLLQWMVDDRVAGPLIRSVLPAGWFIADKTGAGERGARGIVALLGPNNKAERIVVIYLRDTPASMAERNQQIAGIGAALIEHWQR

[3] = molecular target: T3, CTX-M-15 (Escherichia coli, UniProt Q9EXV5); assay: as above; type: biochemical; conditions: class (A); nitrocefin 200 μM, 30 min pre-incubation; read-out: IC50 β-lactamase CTX-M-15
T3 construct: made in house; host or cells: E. coli
T3 sequence (Q9EXV5 entry or part of it): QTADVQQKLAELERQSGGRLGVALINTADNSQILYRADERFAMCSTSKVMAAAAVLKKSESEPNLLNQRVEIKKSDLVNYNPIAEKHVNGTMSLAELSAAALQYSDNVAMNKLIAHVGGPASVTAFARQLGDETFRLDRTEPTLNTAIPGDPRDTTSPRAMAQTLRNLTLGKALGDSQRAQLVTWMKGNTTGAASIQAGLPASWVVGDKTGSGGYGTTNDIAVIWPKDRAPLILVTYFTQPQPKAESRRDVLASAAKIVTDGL

[4] = molecular target: T4, KPC-2 (Klebsiella pneumoniae, UniProt Q9F663); assay: as above; type: biochemical; conditions: class (A); nitrocefin 200 μM, 30 min pre-incubation; read-out: IC50 β-lactamase KPC-2
T4 construct: made in house; host or cells: E. coli
T4 sequence (Q9F663 25-293 limits assumed): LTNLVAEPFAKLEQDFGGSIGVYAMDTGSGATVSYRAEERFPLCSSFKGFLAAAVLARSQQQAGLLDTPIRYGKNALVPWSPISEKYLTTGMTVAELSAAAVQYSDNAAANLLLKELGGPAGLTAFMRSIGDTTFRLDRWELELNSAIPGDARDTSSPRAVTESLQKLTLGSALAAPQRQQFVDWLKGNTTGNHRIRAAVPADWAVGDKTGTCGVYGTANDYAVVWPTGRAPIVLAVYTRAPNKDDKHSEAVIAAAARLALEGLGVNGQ

[5] = molecular target: T5, OXA-1 (Escherichia coli, UniProt P13661); assay: as above; type: biochemical; conditions: class (D); nitrocefin 200 μM, 30 min pre-incubation; read-out: IC50 β-lactamase OXA-1
T5 construct: made in house; host or cells: E. coli
T5 sequence (P13661 26-276): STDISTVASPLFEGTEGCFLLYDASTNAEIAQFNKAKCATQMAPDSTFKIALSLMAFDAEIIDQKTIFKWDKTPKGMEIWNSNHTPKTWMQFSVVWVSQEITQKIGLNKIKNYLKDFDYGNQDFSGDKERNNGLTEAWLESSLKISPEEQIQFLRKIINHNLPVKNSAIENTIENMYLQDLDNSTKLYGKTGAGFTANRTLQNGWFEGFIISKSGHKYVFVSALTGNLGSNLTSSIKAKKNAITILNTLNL

[6] = molecular target: T6, OXA-11 (Pseudomonas aeruginosa, UniProt Q06778); assay: as above; type: biochemical
T6 construct: made in house; host or cells: E. coli
T6 sequence (Q06778 21-266): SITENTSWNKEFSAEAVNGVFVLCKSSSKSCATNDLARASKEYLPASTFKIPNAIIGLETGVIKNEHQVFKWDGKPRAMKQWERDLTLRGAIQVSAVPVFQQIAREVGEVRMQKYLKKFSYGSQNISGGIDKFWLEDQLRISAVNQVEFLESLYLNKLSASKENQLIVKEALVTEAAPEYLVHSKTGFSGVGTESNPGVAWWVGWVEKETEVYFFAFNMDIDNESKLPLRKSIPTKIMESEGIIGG

[7] = molecular target: T7, OXA-15 (Pseudomonas aeruginosa, UniProt Q51574); assay: biochemical
T7 construct: made in house; host or cells: E. coli
T7 sequence (Q51574 22-275): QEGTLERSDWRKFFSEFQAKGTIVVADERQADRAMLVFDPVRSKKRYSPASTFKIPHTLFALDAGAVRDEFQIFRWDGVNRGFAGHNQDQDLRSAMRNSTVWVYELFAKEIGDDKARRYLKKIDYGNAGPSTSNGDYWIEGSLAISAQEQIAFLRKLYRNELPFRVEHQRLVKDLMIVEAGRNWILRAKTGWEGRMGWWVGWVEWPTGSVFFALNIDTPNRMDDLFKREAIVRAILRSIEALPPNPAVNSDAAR

[8] = molecular target: T8, OXA-48 (Klebsiella pneumoniae, UniProt Q6XEC0); assay: β-lactamase inhibitory activity, determination of IC50 (nitrocefin hydrolysis); type: biochemical; conditions: class (D); nitrocefin 200 μM, 30 min pre-incubation; read-out: IC50 β-lactamase OXA-48
T8 construct: made in house; host or cells: E. coli
T8 sequence (Q6XEC0 23-265 limits assumed): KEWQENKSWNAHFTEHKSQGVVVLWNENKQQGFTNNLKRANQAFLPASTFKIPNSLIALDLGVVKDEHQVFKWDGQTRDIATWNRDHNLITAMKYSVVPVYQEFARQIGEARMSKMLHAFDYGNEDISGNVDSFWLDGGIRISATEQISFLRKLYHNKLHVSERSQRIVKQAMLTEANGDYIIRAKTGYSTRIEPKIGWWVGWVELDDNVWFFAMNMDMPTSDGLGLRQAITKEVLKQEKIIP

[9] = test system: E. cloacae 260508 (TEM-1, CTX-M-15); assay: MIC of compounds alone, broth microdilution; type: cell-based; conditions: Enterobacter cloacae, read-out: MIC compounds of the invention alone
Summary of the method: (§1)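 Cpd alone in DMSO; CAMHB, log-phase inoculum 5×10^5 cfu/mL; 35° C, 16-20 h, ambient air; MIC = lowest conc. with no visible growth (CLSI M7-A7).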

[10] = test system: E. cloacae P99 (AmpC); assay: MIC of compounds alone, broth microdilution; type: cell-based; conditions: Enterobacter cloacae; strain P99 (E. cloacae); read-out: MIC compounds of the invention alone
Summary of the method: as §1

[11] = test system: E. cloacae UFR51 (SHV-12, IMP-8); assay: MIC of compounds alone, broth microdilution; type: cell-based; conditions: Enterobacter cloacae; strain UFR51 (E. cloacae); read-out: MIC compounds of the invention alone
Summary of the method: as §1

[12] = test system: E. cloacae UFR70 (TEM-1, CTX-M-15, CMY-2, OXA-1, Porin loss); assay: MIC of compounds alone, broth microdilution; type: cell-based; conditions: Enterobacter cloacae, read-out: MIC compounds of the invention alone
Summary of the method: as §1

[13] = test system: E. cloacae UFR85 (TEM-1, CTX-M-15, AmpC); assay: MIC of compounds alone, broth microdilution; type: cell-based; conditions: Enterobacter cloacae, read-out: MIC compounds of the invention alone
Summary of the method: as §1

[14] = test system: E. coli 131119 (TEM-1, OXA-48); assay: MIC of compounds alone, broth microdilution; type: cell-based; conditions: Escherichia coli; strain 131119 (E. coli); read-out: MIC compounds of the invention alone
Summary of the method: as §1

[15] = test system: E. coli RGN238 (OXA-1); assay: MIC of compounds alone, broth microdilution; type: cell-based; conditions: Escherichia coli; strain RGN238 (E. coli); read-out: MIC compounds of the invention alone
Summary of the method: as §1

[16] = test system: E. coli UFR18 (CTX-M-15, OXA-204); assay: MIC of compounds alone, broth microdilution; type: cell-based; conditions: Escherichia coli; strain UFR18 (E. coli); read-out: MIC compounds of the invention alone
Summary of the method: as §1

[17] = test system: E. coli UFR32 (TEM-1, VEB-1, OXA-10); assay: MIC of compounds alone, broth microdilution; type: cell-based; conditions: Escherichia coli; strain UFR32 (E. coli); read-out: MIC compounds of the invention alone
Summary of the method: as §1

[18] = test system: E. coli UFR41 (TEM-1, CTX-M-15, CMY-2, OXA-1, NDM-4); assay: MIC of compounds alone, broth microdilution; type: cell-based; conditions: Escherichia coli, read-out: MIC compounds of the invention alone
Summary of the method: as §1

[19] = test system: E. coli UFR61O (TEM-1, KPC-2); assay: MIC of compounds alone, broth microdilution; type: cell-based; conditions: Escherichia coli; strain UFR61O (E. coli); read-out: MIC compounds of the invention alone
Summary of the method: as §1

[20] = test system: E. coli UFR74 (SHV-1, DHA-1); assay: MIC of compounds alone, broth microdilution; type: cell-based; conditions: Escherichia coli; strain UFR74 (E. coli); read-out: MIC compounds of the invention alone
Summary of the method: as §1

[21] = test system: K. oxytoca UFR21 (TEM-1, CTX-M-15, OXA-48); assay: MIC of compounds alone, broth microdilution; type: cell-based; conditions: Klebsiella oxytoca, read-out: MIC compounds of the invention alone
Summary of the method: as §1

[22] = test system: K. pneumoniae 160143 (TEM-1, SHV-1, CTX-M-15, KPC-2, OXA-1); assay: MIC of compounds alone, broth microdilution; type: cell-based; conditions: Klebsiella pneumoniae, read-out: MIC compounds of the invention alone
Summary of the method: as §1

[23] = test system: K. pneumoniae 200047 (TEM-1, SHV-32, CTX-M-15, OXA-1); assay: MIC of compounds alone, broth microdilution; type: cell-based; conditions: Klebsiella pneumoniae, read-out: MIC compounds of the invention alone
Summary of the method: as §1

[24] = test system: K. pneumoniae 6299 (TEM-1, SHV-11, OXA-163); assay: MIC of compounds alone, broth microdilution; type: cell-based; conditions: Klebsiella pneumoniae; strain 6299 (K. pneumoniae); read-out: MIC compounds of the invention alone
Summary of the method: as §1

[25] = test system: K. pneumoniae BAA-1898 (TEM-1, SHV-11, SHV-12, KPC-2); assay: MIC of compounds alone, broth microdilution; type: cell-based; conditions: Klebsiella pneumoniae, BAA1898; strain BAA-1898 (K. pneumoniae); read-out: MIC compounds of the invention alone
Summary of the method: as §1

[26] = test system: K. pneumoniae UFR24 (TEM-1, SHV-2, SHV-11, OXA-1, OXA-48, OXA-47); assay: MIC of compounds alone, broth microdilution; type: cell-based; conditions: Klebsiella pneumoniae; strain UFR24 (K. pneumoniae); read-out: MIC compounds of the invention alone
Summary of the method: as §1

[27] = test system: K. pneumoniae UFR39 (CTX-M-15, NDM-1); assay: MIC of compounds alone, broth microdilution; type: cell-based; conditions: Klebsiella pneumoniae; strain UFR39 (K. pneumoniae); read-out: MIC compounds of the invention alone
Summary of the method: as §1

[28] = test system: K. pneumoniae UFR68 (TEM-1, SHV-11, CTX-M-15, KPC-3); assay: MIC of compounds alone, broth microdilution; type: cell-based; conditions: Klebsiella pneumoniae, read-out: MIC compounds of the invention alone
Summary of the method: as §1

[29] = test system: K. pneumoniae UFR77 (CMY-2); assay: MIC of compounds alone, broth microdilution; type: cell-based; conditions: Klebsiella pneumoniae; strain UFR77 (K. pneumoniae); read-out: MIC compounds of the invention alone
Summary of the method: as §1

[30] = test system: P. aeruginosa CIP107051 (TEM-24); assay: MIC of compounds alone, broth microdilution; type: cell-based; conditions: Pseudomonas aeruginosa; strain CIP107051 (P. aeruginosa); read-out: MIC compounds of the invention alone
Summary of the method: as §1

[31] = molecular target: AmpC (P99) (Enterobacter cloacae, UniProt P05364); assay: β-lactamase inhibitory activity, determination of IC50 (nitrocefin hydrolysis)
AmpC (P99), sequence (P05364 21-381): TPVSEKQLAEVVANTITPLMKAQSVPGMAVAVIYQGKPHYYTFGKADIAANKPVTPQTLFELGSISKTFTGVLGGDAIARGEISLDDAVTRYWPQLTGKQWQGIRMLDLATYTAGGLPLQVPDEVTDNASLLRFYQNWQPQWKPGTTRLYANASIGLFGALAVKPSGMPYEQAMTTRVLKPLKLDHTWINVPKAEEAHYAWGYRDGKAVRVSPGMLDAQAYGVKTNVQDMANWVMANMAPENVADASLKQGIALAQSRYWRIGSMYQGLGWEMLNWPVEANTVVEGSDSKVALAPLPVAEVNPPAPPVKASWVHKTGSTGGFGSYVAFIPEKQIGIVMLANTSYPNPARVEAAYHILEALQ

[32] = molecular target: AmpC P. aeruginosa (Pseudomonas aeruginosa, UniProt P24735); assay: as above
AmpC P. aeruginosa, sequence (P24735 27-397): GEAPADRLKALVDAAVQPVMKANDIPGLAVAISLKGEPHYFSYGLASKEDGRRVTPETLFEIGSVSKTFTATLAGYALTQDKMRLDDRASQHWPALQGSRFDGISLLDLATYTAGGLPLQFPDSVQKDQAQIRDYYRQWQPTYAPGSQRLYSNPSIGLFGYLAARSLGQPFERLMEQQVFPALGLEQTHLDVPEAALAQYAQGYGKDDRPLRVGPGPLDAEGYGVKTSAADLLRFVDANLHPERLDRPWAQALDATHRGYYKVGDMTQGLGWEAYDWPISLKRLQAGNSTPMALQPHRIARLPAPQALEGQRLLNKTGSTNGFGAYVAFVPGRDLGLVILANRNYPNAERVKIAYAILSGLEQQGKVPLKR

[33] = test system: E. coli 190317 (TEM-1, SHV-12, CTX-M-15, OXA-1); assay: MIC of compounds alone, broth microdilution; type: cell-based; conditions: Escherichia coli, read-out: MIC compounds of the invention alone
Summary of the method: as §1

[34] = test system: E. cloacae UFR51 (SHV-12, IMP-8); assay: MIC of ceftazidime (CAZ) in combination with compounds at 4 μg/mL, broth microdilution; type: cell-based; conditions: strain UFR51; MIC of CAZ with compound fixed at 4 μg/mL
Protocol: Method 2: MIC of Compounds and Synergy with Ceftazidime Against Bacterial Isolates (Table 2 and 3)
Compounds of the present invention were assessed against genotyped bacterial strains alone or in combination with the β-lactam ceftazidime (CAZ). In the assays, MICs of said compounds, or of ceftazidime at fixed concentrations of said compounds were determined by the broth microdilution method according to the Clinical Laboratory Standards Institute (CLSI-M7-A7). Briefly, compounds alone according to the invention were prepared in DMSO and spotted (2 μL each) on sterile polystyrene plates (Corning, 3788). Compounds and ceftazidime dilutions were prepared in DMSO and spotted (1 μL each) on sterile polystyrene plates (Corning, 3788). Log phase bacterial suspensions were adjusted to a final density of 5×10^5 cfu/mL in cation-adjusted Mueller-Hinton broth (Becton-Dickinson) and added to each well (98 μL). Microplates were incubated for 16-20 h at 35° C. in ambient air. The MIC of the compounds was defined as the lowest concentration of said compounds that prevented bacterial growth as read by visual inspection. The MIC of ceftazidime at each compound concentration was defined as the lowest concentration of ceftazidime that prevented bacterial growth as read by visual inspection.

T1 sequence (P62593 24-286 limits assumed): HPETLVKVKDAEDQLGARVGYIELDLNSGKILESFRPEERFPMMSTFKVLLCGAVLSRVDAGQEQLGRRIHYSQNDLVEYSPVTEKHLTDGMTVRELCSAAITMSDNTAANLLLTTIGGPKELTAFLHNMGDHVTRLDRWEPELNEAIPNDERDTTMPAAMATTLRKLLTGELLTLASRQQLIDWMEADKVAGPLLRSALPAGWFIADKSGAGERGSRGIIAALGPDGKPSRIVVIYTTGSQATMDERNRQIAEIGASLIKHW

Structure (SMILES)	IC50 [1]	IC50 [2]	IC50 [3]	IC50 [4]	IC50 [5]	IC50 [6]	IC50 [7]	IC50 [8]	MIC [10]	MIC [11]	MIC [12]	MIC [14]	MIC [15]	MIC [16]	MIC [17]	MIC [19]	MIC [20]	MIC [21]	MIC [22]	MIC [23]	also measured
O=C1N2CC=C(c3cnoc3)C(C2)N1OS(=O)(=O)[O-].[Na+] (centres unmarked) [Example 5, Sodium (7-oxo-4-isoxazol-4-yl-1,6-diaza-bicyclo[3.2.1]oct-3-en-6-yl) sulfate]	11 nM	25 nM	6.9 nM	270 nM	450 nM	2200 nM	94 nM	5.7 nM	8 µg/mL	2 µg/mL	16 µg/mL	16 µg/mL	> 32 µg/mL	1 µg/mL	1 µg/mL	8 µg/mL	> 32 µg/mL	> 32 µg/mL	> 32 µg/mL	> 32 µg/mL	MIC [9]: 16 µg/mL; MIC [13]: > 32 µg/mL; MIC [18]: > 32 µg/mL; MIC [24]: > 32 µg/mL; MIC [25]: > 32 µg/mL; MIC [26]: > 32 µg/mL; MIC [27]: 2 µg/mL; MIC [28]: > 32 µg/mL; MIC [29]: > 32 µg/mL; MIC [30]: > 32 µg/mL; IC50 [31]: 670 nM; IC50 [32]: 1500 nM
O=C1N2CC(c3ccncc3)=CC(C2)N1OS(=O)(=O)[O-].[Na+] (centres unmarked) [Example 33, Sodium [3-(4-pyridyl)-7-oxo-1,6-diazabicyclo[3.2.1]oct-3-en-6-yl]sulfate]	1 nM	2.3 nM	0.79 nM	9 nM	690 nM	210 nM	110 nM	12 nM	8 µg/mL	16 µg/mL	4 µg/mL	4 µg/mL	4 µg/mL	4 µg/mL	8 µg/mL	16 µg/mL	8 µg/mL	32 µg/mL	8 µg/mL	8 µg/mL	MIC [33]: 4 µg/mL; MIC [24]: 16 µg/mL; MIC [25]: 8 µg/mL; MIC [26]: 32 µg/mL; MIC [27]: 16 µg/mL; MIC [29]: 16 µg/mL; MIC [30]: > 32 µg/mL; MIC combination of CAZ and compounds of the invention at 4 μg/mL [34]: >128 µg/mL; IC50 [31]: 31 nM; IC50 [32]: 90 nM
